The source of these data is patent US4524073A, “β-Lactam compounds” (Beecham Group p.1.c., priority 1982, dated 1985).

One assay relates to E.coli JT39. Briefly: Antibacterial activity, E. coli JT39 (Table 2). The class given is cell-based. Particulars: Escherichia coli, compound alone.
The next assay has as its system S.aureus Russell. Briefly: Antibacterial activity, S. aureus Russell (Table 2). The format is cell-based. To be noted: Staphylococcus aureus, compound alone.

Structures are written as SMILES. Values after ≈ are worked out from the molar mass of the structure shown. Some results are limits rather than exact numbers.

Turning to `COC(CNC/C=C1\O[C@@H]2CC(=O)N2[C@H]1C(=O)O)OC` [Example 1, 9-N-(2,2-Dimethoxyethyl)amino deoxyclavulanate], the figures for the MIC with E.coli JT39 and in the assay on S.aureus Russell were 16 µg/mL (≈ 55.9 µM) and 8 µg/mL (≈ 27.9 µM), respectively.
For `O=C(O)[C@H]1/C(=C/CNCCCl)O[C@@H]2CC(=O)N21` [Example 2, 9-N-(2-Chloroethyl)amino-deoxyclavulanic acid], in that order: 31.2 µg/mL (≈ 120 µM) and 8 µg/mL (≈ 30.7 µM).
For `O=C(O)[C@H]1/C(=C/CNCCc2ccccn2)O[C@@H]2CC(=O)N21` [Example 4, 9-N-(2-Pyrid-2'-ylethyl)aminodeoxyclavulanic acid], in that order: 31.2 µg/mL (≈ 103 µM) and 4 µg/mL (≈ 13.2 µM).
For `O=C(O)[C@H]1/C(=C/CNCCc2ccncc2)O[C@@H]2CC(=O)N21` [Example 5, 9-N-(2-Pyrid-4'-ylethyl)amino deoxyclavulanic acid] the same measures were 31.2 µg/mL (≈ 103 µM) and 8 µg/mL (≈ 26.4 µM).
Regarding `CS(=O)(=O)NCCNC/C=C1\O[C@@H]2CC(=O)N2[C@H]1C(=O)O` [Example 12, 9-N-(2-methylsulphonamidoethyl)aminodeoxyclavulanic acid], the minimum inhibitory concentration (MIC) (usually the least concentration at which growth counts as inhibited) is 31.2 µg/mL (≈ 97.7 µM) against E.coli JT39 and 8 µg/mL (≈ 25.1 µM) in the assay with S.aureus Russell.
Consider `CS(=O)(=O)NCCCNC/C=C1\O[C@@H]2CC(=O)N2[C@H]1C(=O)O` [Example 13, 9-N-(3-Methylsulphonamidopropyl)aminodeoxyclavulanic acid], for which the MIC in the assay with E.coli JT39 was determined as 31.2 µg/mL (≈ 93.6 µM); in the assay with S.aureus Russell, 16 µg/mL (≈ 48 µM).
For `O=C(O)[C@H]1/C(=C/CNCCCn2ccnc2)O[C@@H]2CC(=O)N21` [Example 18], the MIC came out at 31.2 µg/mL (≈ 102 µM) against E.coli JT39 and 8 µg/mL (≈ 26.1 µM) in the assay on S.aureus Russell.
Turning to `CCOC(CCCNC/C=C1\O[C@@H]2CC(=O)N2[C@H]1C(=O)O)OCC` [Example 19, 9-N-(4,4-Diethoxybutyl)amino deoxyclavulanic acid], the results for the MIC against E.coli JT39 and in the assay on S.aureus Russell were 31.2 µg/mL (≈ 91.1 µM) and 16 µg/mL (≈ 46.7 µM), respectively.
As for `CC(=O)OCCCCNC/C=C1\O[C@@H]2CC(=O)N2[C@H]1C(=O)O` [Example 20, 9-N-(4-Acetoxybutyl)aminodeoxyclavulanic acid], the MIC with E.coli JT39 came out at 31.2 µg/mL (≈ 99.9 µM); in the assay with S.aureus Russell it was 16 µg/mL (≈ 51.2 µM).
For `CC(C)(CCCNC/C=C1\O[C@@H]2CC(=O)N2[C@H]1C(=O)O)[N+](=O)[O-]` [Example 21, 9-N-[4-Methyl-4-nitropentyl]aminodeoxyclavulanic acid], in that order: 8 µg/mL (≈ 24.4 µM) and 4 µg/mL (≈ 12.2 µM).
Regarding `CN(C)C(=O)NCCNC/C=C1\O[C@@H]2CC(=O)N2[C@H]1C(=O)O` [Example 22 (2nd compound), 9-N-(N'N'-dimethylureido)ethylaminodeoxyclavulanic acid], the MIC against E.coli JT39 was determined as 62.5 µg/mL (≈ 200 µM); against S.aureus Russell, 4 µg/mL (≈ 12.8 µM).
For `O=C(O)[C@H]1/C(=C/CNCCS(=O)(=O)c2ccccc2)O[C@@H]2CC(=O)N21` [Example 23, 9-N-[2-(phenylsulphonyl)ethyl]aminodeoxyclavulanic acid] the same measures were 31.2 µg/mL (≈ 85.2 µM) and 16 µg/mL (≈ 43.7 µM).
For `O=C(CCNC/C=C1\O[C@@H]2CC(=O)N2[C@H]1C(=O)O)NCc1ccccc1` [Example 25, 9-N-(3-N-Benzylcarbamoyleth-1-yl)aminodeoxyclavulanic acid] the same measures were 8 µg/mL (≈ 22.3 µM) and 2 µg/mL (≈ 5.57 µM).
With `O=C(O)[C@H]1/C(=C/CNCCc2c[nH]c3ccccc23)O[C@@H]2CC(=O)N21` [Example 26, 9-N-(2-Indol-3'-ylethyl)aminodeoxyclavulanic acid], the MIC with E.coli JT39 was 8 µg/mL (≈ 23.4 µM); in the assay on S.aureus Russell it was not above 0.5 µg/mL.
For `NC(=O)CCNC/C=C1\O[C@@H]2CC(=O)N2[C@H]1C(=O)O` [Example 28, 9-N-(2-carbamoylethyl)aminodeoxyclavulanic acid] the same measures were 16 µg/mL (≈ 59.4 µM) and 16 µg/mL (≈ 59.4 µM).
In the case of `O=C(O)[C@H]1/C(=C/CNCCNc2ccccc2)O[C@@H]2CC(=O)N21` [Example 29, 9-N-(2-Phenylaminoethyl)aminodeoxyclavulanic acid], the MIC against E.coli JT39 stood at 16 µg/mL (≈ 50.4 µM); with S.aureus Russell it was 4 µg/mL (≈ 12.6 µM).
For `O=C(O)[C@H]1/C(=C/CNCC(O)c2ccccc2)O[C@@H]2CC(=O)N21` (stereo partly shown) [Example 30, 9-N-(2-Hydroxy-2-phenylethyl)aminodeoxyclavulanic acid], in that order: 31.2 µg/mL (≈ 98 µM) and 2 µg/mL (≈ 6.28 µM).
